In patent US7709482B2, “Polycyclic heteroaryl substituted triazoles useful as Axl inhibitors” (Rigel Pharmaceuticals, Inc., priority 2006, dated 2010) one finds IC50 data, which are given here for 22 compounds.

Read-outs that look alike come from different tables or passages of the source.

The target in the experiment is T1, Axl (Homo sapiens, UniProt P30530).
T1 construct: endogenous in cells; host or cells: HeLa cells
T1 sequence (P30530 26-894): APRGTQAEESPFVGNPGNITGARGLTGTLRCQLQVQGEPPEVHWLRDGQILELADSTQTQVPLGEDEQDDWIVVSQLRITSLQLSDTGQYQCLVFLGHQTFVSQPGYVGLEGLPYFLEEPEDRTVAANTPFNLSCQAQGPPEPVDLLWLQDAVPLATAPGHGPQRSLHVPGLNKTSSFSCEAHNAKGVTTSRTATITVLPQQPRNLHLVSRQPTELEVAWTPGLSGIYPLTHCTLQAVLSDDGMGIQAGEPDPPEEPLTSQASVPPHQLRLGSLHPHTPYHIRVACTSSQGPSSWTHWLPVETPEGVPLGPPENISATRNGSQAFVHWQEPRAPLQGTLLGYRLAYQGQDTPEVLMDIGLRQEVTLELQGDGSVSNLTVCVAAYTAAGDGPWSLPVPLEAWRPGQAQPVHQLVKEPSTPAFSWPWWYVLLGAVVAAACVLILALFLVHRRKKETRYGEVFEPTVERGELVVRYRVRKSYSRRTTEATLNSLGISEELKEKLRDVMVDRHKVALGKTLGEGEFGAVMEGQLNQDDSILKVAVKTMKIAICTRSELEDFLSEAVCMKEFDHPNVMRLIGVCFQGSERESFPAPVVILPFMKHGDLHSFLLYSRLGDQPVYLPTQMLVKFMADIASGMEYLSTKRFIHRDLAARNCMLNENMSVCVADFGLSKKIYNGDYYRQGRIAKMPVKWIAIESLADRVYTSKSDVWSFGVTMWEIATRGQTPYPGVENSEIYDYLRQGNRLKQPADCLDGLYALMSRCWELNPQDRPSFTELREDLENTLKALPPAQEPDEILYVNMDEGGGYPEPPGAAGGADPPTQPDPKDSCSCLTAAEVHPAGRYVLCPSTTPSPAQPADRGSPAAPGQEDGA
The experiment can be described thus: Phospho-Akt In-Cell Western Assay (inhibition of Axl activity after Axl-antibody cross-linking). In kind it is cell-based. Summed up: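 HeLa cells on poly-L-lysine, starved 24 h in 0.5% FCS DMEM with Axl/Fc 500 ng/mL, pre-treated with compound 1 h at 37 °C, then stimulated 5 min by anti-Axl/anti-mouse antibody cross-linking. Fixed cells probed for phospho-Akt with HRP secondary and chemiluminescent detection.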

The mark [1] stands for this setting: Hela cells, phospho-Akt chemiluminescence normalized to relative cell number, compounds of formula (Ia), Table 1, read-out: IC50.
The mark [2] stands for this setting: inhibition of Axl activity, Table 1, compounds of formula (Ia), read-out: IC50.

For the compound `CCCCN(Cc1ccc(Nc2nc(N)n(-c3cc4c(nn3)-c3ccccc3CCC4)n2)cc1)C(C)=O` [Compound 90, 1-(6,7-dihydro-5H-benzo[6,7]cyclohepta[1,2-c]pyridazin-3-yl)-N^3-(4-((N-butyl-N-acetoamino)methyl)phenyl)-1H-1,2,4-triazole-3,5-diamine], the IC50 (in general, the point on the concentration scale where inhibition reaches its midpoint) under setting [1] was 1000 to 10000 nM. For the compound `Nc1nc(Nc2ccc3c(c2)CCC(N2CCC2)CC3)nn1-c1cc2c(nn1)-c1ccccc1CCC2` (stereo not shown) [Compound 151, 1-(6,7-dihydro-5H-benzo[6,7]cyclohepta[1,2-c]pyridazin-3-yl)-N^3-((7-azetidin-1-yl)-6,7,8,9-tetrahydro-5H-benzo[7]annulene-2-yl)-1H-1,2,4-triazole-3,5-diamine], the IC50 under setting [2] was less than 1000 nM. Regarding `CN1CCN(Cc2ccc(Nc3nc(N)n(-c4cc5c(nn4)-c4ccccc4CCC5)n3)cc2)CC1` [Compound 35, 1-(6,7-dihydro-5H-benzo[6,7]cyclohepta[1,2-c]pyridazin-3-yl)-N^3-(4-((4-methylpiperazin-1-yl)methyl)phenyl)-1H-1,2,4-triazole-3,5-diamine], under setting [1], the IC50 was less than 1000 nM.

In the case of `CCN(CC)C1CCN(CC=Cc2ccc(Nc3nc(N)n(-c4cc5c(nn4)-c4ccccc4CCC5)n3)cc2)C1` (stereo not shown) [Compound 201, 1-(6,7-dihydro-5H-benzo[6,7]cyclohepta[1,2-c]pyridazin-3-yl)-N^3-(4-(3-diethylaminopyrrolidin-1-ylprop-1-enyl)phenyl)-1H-1,2,4-triazole-3,5-diamine], the IC50 under setting [2] is less than 1000 nM. As for `COc1ccc2c(c1)CCCc1cc(-n3nc(Nc4ccc(N5CCC(N6CCCC6)CC5)c(F)c4)nc3N)nnc1-2` [Compound 52, 1-(6,7-dihydro-5H-9-methoxybenzo[6,7]cyclo-hepta[1,2-c]pyridazin-3-yl)-N^3-(3-fluoro-4-(4-(pyrrolidin-1-yl)piperidin-1-yl)phenyl)-1H-1,2,4-triazole-3,5-diamine], the IC50 under setting [1] is less than 1000 nM.

On to `COCCNC(=O)c1ccc(Nc2nc(N)n(-c3cc4c(nn3)-c3ccccc3CCC4)n2)cc1` [Compound 20, 1-(6,7-dihydro-5H-benzo[6,7]cyclohepta[1,2-c]pyridazin-3-yl)-N^3-(4-((2-(methoxy)ethyl)amino-carbonyl)phenyl)-1H-1,2,4-triazole-3,5-diamine], for which the IC50 under setting [1] was 1000 to 10000 nM.

As for `Nc1nc(Nc2ccc3c(c2)CCC(NCC(=O)O)CC3)nn1-c1cc2c(nn1)-c1ccccc1CCC2` (stereo not shown) [Compound 237, 1-(6,7-dihydro-5H-benzo[6,7]cyclohepta[1,2-c]pyridazin-3-yl)-N^3-(7-(carboxymethyl)amino-6,7,8,9-tetrahydro-5H-benzo[7]annulene-2-yl)-1H-1,2,4-triazole-3,5-diamine], the IC50 under setting [2] is more than 20000 nM.

For `Nc1nc(Nc2ccc(C=CCN3CCC(N4CCCC4)CC3)cc2)nn1-c1cc2c(nn1)-c1ccccc1CCC2` [Compound 203, 1-(6,7-dihydro-5H-benzo[6,7]cyclohepta[1,2-c]pyridazin-3-yl)-N^3-(4-(4-pyrrolidin-1-ylpiperidin-1-ylprop-1-enyl)phenyl)-1H-1,2,4-triazole-3,5-diamine], the IC50 under setting [2] is less than 1000 nM. On the same count and under the same terms, for `Nc1nc(Nc2ccc(N3CCN4CCCCC4C3)c(F)c2)nn1-c1cc2c(nn1)-c1ccccc1CCC2` (stereo not shown) [Compound 128, 1-(6,7-dihydro-5H-benzo[6,7]cyclohepta[1,2-c]pyridazin-3-yl)-N^3-(3-fluoro-4-(octahydro-1H-pyrido[1,2-a]pyrazin-2-yl)phenyl)-1H-1,2,4-triazole-3,5-diamine] the value was 1000 to 10000 nM. For `Nc1nc(Nc2ccc(OCCN3CCCC3)c(Cl)c2)nn1-c1cc2c(nn1)-c1ccccc1CCC2` [Compound 47, 1-(6,7-dihydro-5H-benzo[6,7]cyclohepta[1,2-c]pyridazin-3-yl)-N^3-(3-chloro-4-(2-(pyrrolidin-1-yl)ethoxy)phenyl)-1H-1,2,4-triazole-3,5-diamine], under setting [1], the half-maximal inhibitory concentration (IC50) was in the range of 1000 to 10000 nM. In turn, `Nc1nc(Nc2ccc(N3CCC(N4C(=O)Cc5ccccc54)CC3)c(F)c2)n(-c2cc3c(nn2)-c2ccccc2CCC3)n1` [Compound 157, 1-(6,7-dihydro-5H-benzo[6,7]cyclohepta[1,2-c]pyridazin-3-yl)-N^5-(3-fluoro-4-(4-(indolin-2-on-1-yl)piperidin-1-yl)phenyl)-1H-1,2,4-triazole-3,5-diamine] had an IC50 of more than 20000 nM. Consider `Nc1nc(Nc2ccc3c(c2)CCC(N2CC[C@@H](F)C2)CC3)nn1-c1cc2c(nn1)-c1ccccc1CCC2` (stereo partly drawn) [Compound 222, 1-(6,7-dihydro-5H-benzo[6,7]cyclohepta[1,2-c]pyridazin-3-yl)-N^3-(7-(3-(R)-fluoropyrrolidin-1-yl)-6,7,8,9-tetrahydro-5H-benzo[7]annulene-2-yl)-1H-1,2,4-triazole-3,5-diamine], for which the IC50 under setting [2] was less than 1000 nM. On to `Nc1nc(Nc2ccc(C=CCN3CCOCC3)cc2)nn1-c1cc2c(nn1)-c1ccccc1CCC2` [Compound 207, 1-(6,7-dihydro-5H-benzo[6,7]cyclohepta[1,2-c]pyridazin-3-yl)-N^3-(4-(morpholin-4-ylprop-1-enyl)phenyl)-1H-1,2,4-triazole-3,5-diamine], for which the IC50 under setting [2] was less than 1000 nM. In the case of `CN1CCC2(CCN(c3ccc(Nc4nc(N)nn4-c4cc5c(nn4)-c4ccccc4CCC5)cc3F)C2)C1` (stereo not shown) [Compound 169, 1-(6,7-dihydro-5H-benzo[6,7]cyclohepta[1,2-c]pyridazin-3-yl)-N^5-(3-fluoro-4-(7-methyl-2,7-diazaspiro[4.4]nonan-2-yl)phenyl)-1H-1,2,4-triazole-3,5-diamine], the IC50 (Hela cells, phospho-Akt chemiluminescence normalized to relative cell number, compounds of formula (Ib), Table 2, read-out: IC50) was 1000 to 10000 nM. For the compound `Nc1nc(Nc2ccc(C3CCN(C4CC5CCC4C5)CC3)cc2)nn1-c1cc2c(nn1)-c1ccccc1SCC2` (stereo not shown) [Compound 236, 1-(6,7-dihydro-5H-benzo[2,3]thiepino[4,5-c]pyridazin-3-yl)-N^3-(4-(1-bicyclo[2.2.1]heptan-2-yl)-piperidin-4-ylphenyl)-1H-1,2,4-triazole-3,5-diamine], the IC50 under setting [2] is less than 1000 nM. Take `CC(C)N1CCN(Cc2ccc(Nc3nc(N)n(-c4cc5c(nn4)-c4ccccc4CCC5)n3)cc2)CC1` [Compound 108, 1-(6,7-dihydro-5H-benzo[6,7]cyclohepta[1,2-c]pyridazin-3-yl)-N^3-(4-((4-isopropylpiperazinyl)methyl)-phenyl)-1H-1,2,4-triazole-3,5-diamine]: the IC50 under setting [1] is less than 1000 nM.

Turning to `Nc1nc(Nc2ccc(CC3C(=O)Nc4ccc(F)cc43)cc2)nn1-c1cc2c(nn1)-c1ccccc1CCC2` (stereo not shown) [Compound 91, 1-(6,7-dihydro-5H-benzo[6,7]cyclohepta[1,2-c]pyridazin-3-yl)-N^3-(4-((5-fluoroindolin-2-on-3-yl)methyl)phenyl)-1H-1,2,4-triazole-3,5-diamine], the IC50 under setting [1] was more than 20000 nM. For the compound `Nc1nc(Nc2ccc(N3CCN(C4CCCCC4)CC3)c(F)c2)nn1-c1cc2c(nn1)-c1cc(F)ccc1CCC2` [Compound 55, 1-(6,7-dihydro-5H-10-fluorobenzo[6,7]cyclo-hepta[1,2-c]pyridazin-3-yl)-N^3-(3-fluoro-4-(4-(cyclohexyl)piperazin-1-yl)phenyl)-1H-1,2,4-triazole-3,5-diamine], the IC50 under setting [1] lay in the range of 10000 to 20000 nM. On to `Nc1nc(Nc2cnc3c(c2)CCN(C2CCCC2)CC3)nn1-c1cc2c(nn1)-c1ccccc1CCC2` [Compound 26, 1-(6,7-dihydro-5H-benzo[6,7]cyclohepta[1,2-c]pyridazin-3-yl)-N^3-(7-cyclopentyl-6,7,8,9-tetrahydro-5H-pyrido[3,2-d]azepin-3-yl)-1H-1,2,4-triazole-3,5-diamine], for which, under setting [1], the IC50 lay within 1000 to 10000 nM. For `CC(C)N1CCN(c2ccc(Nc3nc(N)n(-c4cc5c(nn4)-c4ccccc4CCC5)n3)cc2F)CC1` [Compound 111, 1-(6,7-dihydro-5H-benzo[6,7]cyclohepta[1,2-c]pyridazin-3-yl)-N^3-(3-fluoro-4-(N-isopropylpiperazin-1-yl)phenyl)-1H-1,2,4-triazole-3,5-diamine], the IC50 under setting [1] was less than 1000 nM. In the case of `Nc1nc(Nc2ccc(N3CCC(N4CCCC4)CC3)c(F)c2)nn1-c1cc2c(nn1)-c1ccccc1OC21CCCC1` [Compound 176, 1-(spiro[chromeno[4,3-c]pyridazine-5,1′-cyclopentane]-3-yl)-N^3-(3-fluoro-4-(4-(pyrrolidin-1-yl)piperidin-1-yl)phenyl)-1H-1,2,4-triazole-3,5-diamine], the IC50 under setting [2] fell in the range of 1000 to 10000 nM.

With `Nc1nc(Nc2ccc(N3CCC(N4CCCC4)CC3)c(C(F)(F)F)c2)nn1-c1cc2c(nn1)-c1ccccc1CCC2` [Compound 63, 1-(6,7-dihydro-5H-benzo[6,7]cyclohepta[1,2-c]pyridazin-3-yl)-N^3-(3-trifluoromethyl-4-(4-pyrrolidin-1-yl-piperidin-1-yl)phenyl)-1H-1,2,4-triazole-3,5-diamine], the IC50 under setting [1] lay in the range of 1000 to 10000 nM.
